Assay results taken from patent US11116219B2, “Method for controlling discharge-type multidrug resistant plant diseases” (SUMITOMO CHEMICAL COMPANY, LIMITED, priority 2017, dated 2021).

How the values were obtained:
[1] = test system: wheat Septoria leaf blotch fungus (Zymoseptoria tritici) wild-type fungus strain; assay: Control test against wheat Septoria leaf blotch fungus, wild-type fungus strain (titer plate growth, absorbance at 600 nm); assay type: cell-based; details: PDB culture media, 18° C., 4 days
Protocol: (§1) Control test against Efflux type multidrug resistant wheat Septoria leaf blotch fungus (Zymoseptoria tritici)
(§2) Each of the present compound (1) and tolnaftrate was diluted with dimethyl sulfoxide to a prescribed concentration thereof, respectively. Each of the chemical solutions comprising the respective testing compound was dispensed into a titer plate (with 96 wells) in the amount of 1 μL. […] The plate was cultured at 18° C. for 4 days, thereby allowing each wheat Septoria leaf blotch fungus to undergo proliferation, and the absorbance at 600 nm of each well of the titer plate was then measured to determine a degree of growth of the wheat Septoria leaf blotch fungus (treated group). […]
(§3) The efficacy was calculated from the degree of the growth by the below-mentioned “Equation 1”, and then each EC50 value of the testing compound, respectively against the efflux type multidrug resistant fungus strains and the wild-type fungus strain was calculated. Next, as shown in the below-mentioned “Equation 2”, an EC50 value ratio was calculated by dividing an EC50 value against the efflux type multidrug resistant fungus strains by an EC50 value against the wild-type fungus strain. […]

[2] = test system: efflux type multidrug resistant fungus strain 1: ABC transporter-overexpressing fungus strain (Bc-56) of grapes gray mold fungus (Botrytis cinerea); assay: Control test against efflux type multidrug resistant grapes gray mold fungus, strain 1; assay type: cell-based
Protocol: (§4) Control Test Against Efflux Type Multidrug Resistant Grapes Gray Mold Fungus (Botrytis cinerea)
(§5) Each of the present compound (1), fludioxonil and tolnaftrate was diluted with dimethyl sulfoxide to a prescribed concentration thereof, respectively. Each of the chemical solutions comprising the respective testing compound was dispensed into a titer plate (with 96 wells) in the amount of 1 μL. […] The plate was cultured at 18° C. for 2 days, thereby allowing each grapes gray mold fungus to undergo proliferation, and the absorbance at 600 nm of each well of the titer plate was then measured to determine a degree of growth of each of the grapes gray mold fungi (treated group). […]
(§6) The efficacy was calculated from the degree of the growth by the below-mentioned “Equation 1”, and then each EC50 value of the testing compound, respectively against the efflux type multidrug resistant fungus strains and the wild-type fungus strain was calculated. Also, an EC50 value ratio was calculated by the above-mentioned “Equation 2”.

[3] = test system: Efflux type multidrug resistant wheat Septoria leaf blotch fungus (Zymoseptoria tritici), fungus strain St 106-6; assay: Control test against efflux type multidrug resistant wheat Septoria leaf blotch fungus (titer plate growth, absorbance at 600 nm); assay type: cell-based
Protocol: as §1, §2, §3

[4] = test system: efflux type multidrug resistant fungus strain 3: ABC transporter and MFS transporter-overexpressing fungus strain (Bc-103) of grapes gray mold fungus (Botrytis …); assay: Control test against efflux type multidrug resistant grapes gray mold fungus, strain 3; assay type: cell-based, Botrytis cinerea
Protocol: as §4, §5, §6

[5] = test system: efflux type multidrug resistant fungus strain 2: MFS transporter-overexpressing fungus strain (Bc-107) of grapes gray mold fungus (Botrytis cinerea); assay: Control test against efflux type multidrug resistant grapes gray mold fungus, strain 2; assay type: cell-based
Protocol: as §4, §5, §6

[6] = test system: grapes gray mold fungus (Botrytis cinerea) wild-type fungus strain; assay: Control test against grapes gray mold fungus, wild-type fungus strain (titer plate growth, absorbance at 600 nm); assay type: cell-based; details: PDB culture media, 18° C., 2 days
Protocol: as §4, §5, §6

Cn1c(=O)c2sc3c(=O)n(C)c(=O)c3sc2c1=O [Present compound (1)]
EC50 value, Wild-type fungus strain [1]: 1.2 ppm | EC50 value, Efflux type multidrug resistant fungus strain 1 ([2]; Botrytis cinerea Bc-56 (ABC transporter-overexpressing), 18° C., 2 days): 1.7 ppm | EC50 value ratio 1 ([2]; EC50 against efflux type multidrug resistant strain 1 / EC50 against wild-type, Botrytis cinerea): 0.89 | EC50 value ratio ([3]; EC50 against efflux type multidrug resistant fungus strain / EC50 against wild-type fungus strain, Zymoseptoria tritici): 1.1 | EC50 value, Efflux type multidrug resistant fungus strain ([3]; Zymoseptoria tritici St 106-6, PDB culture media, 18° C., 4 days): 1.3 ppm | EC50 value, Efflux type multidrug resistant fungus strain 3 ([4]; Botrytis cinerea Bc-103 (ABC and MFS transporter-overexpressing), 18° C., 2 days): 2.4 ppm | EC50 value ratio 3 ([4]; EC50 against efflux type multidrug resistant strain 3 / EC50 against wild-type, Botrytis cinerea): 1.3 | EC50 value, Efflux type multidrug resistant fungus strain 2 ([5]; Botrytis cinerea Bc-107 (MFS transporter-overexpressing), 18° C., 2 days): 1.7 ppm | EC50 value ratio 2 ([5]; EC50 against efflux type multidrug resistant strain 2 / EC50 against wild-type, Botrytis cinerea): 0.89 | EC50 value, Wild-type fungus strain [6]: 1.9 ppm
